# Measurements taken from the kinase profiling compilation of Christmann-Franck et al. (2016).
# Key:
# [1] = target: PIM2 (human) (UniProt Q9P1W9); assay: SelectScreen, TR FRET
# [2] = target: PIM1 (human) (UniProt P11309); assay: SelectScreen, TR FRET
# [3] = target: MAPK15 (human) (UniProt Q8TD08); assay: KINOMEscan competition binding; details: compound 10.0 µM
# [4] = target: CLK1 (human) (UniProt P49759); assay: KINOMEscan competition binding; details: compound 10.0 µM
# [5] = target: PIM3 (human) (UniProt Q86V86); assay: KINOMEscan competition binding; details: compound 10.0 µM
# [6] = target: HIPK1 (human) (UniProt Q86Z02); assay: KINOMEscan competition binding; details: compound 10.0 µM
# [7] = target: TAOK3 (human) (UniProt Q9H2K8); assay: KINOMEscan competition binding; details: compound 10.0 µM
# TAOK3 (human), sequence (Q9H2K8 whole entry, looked up): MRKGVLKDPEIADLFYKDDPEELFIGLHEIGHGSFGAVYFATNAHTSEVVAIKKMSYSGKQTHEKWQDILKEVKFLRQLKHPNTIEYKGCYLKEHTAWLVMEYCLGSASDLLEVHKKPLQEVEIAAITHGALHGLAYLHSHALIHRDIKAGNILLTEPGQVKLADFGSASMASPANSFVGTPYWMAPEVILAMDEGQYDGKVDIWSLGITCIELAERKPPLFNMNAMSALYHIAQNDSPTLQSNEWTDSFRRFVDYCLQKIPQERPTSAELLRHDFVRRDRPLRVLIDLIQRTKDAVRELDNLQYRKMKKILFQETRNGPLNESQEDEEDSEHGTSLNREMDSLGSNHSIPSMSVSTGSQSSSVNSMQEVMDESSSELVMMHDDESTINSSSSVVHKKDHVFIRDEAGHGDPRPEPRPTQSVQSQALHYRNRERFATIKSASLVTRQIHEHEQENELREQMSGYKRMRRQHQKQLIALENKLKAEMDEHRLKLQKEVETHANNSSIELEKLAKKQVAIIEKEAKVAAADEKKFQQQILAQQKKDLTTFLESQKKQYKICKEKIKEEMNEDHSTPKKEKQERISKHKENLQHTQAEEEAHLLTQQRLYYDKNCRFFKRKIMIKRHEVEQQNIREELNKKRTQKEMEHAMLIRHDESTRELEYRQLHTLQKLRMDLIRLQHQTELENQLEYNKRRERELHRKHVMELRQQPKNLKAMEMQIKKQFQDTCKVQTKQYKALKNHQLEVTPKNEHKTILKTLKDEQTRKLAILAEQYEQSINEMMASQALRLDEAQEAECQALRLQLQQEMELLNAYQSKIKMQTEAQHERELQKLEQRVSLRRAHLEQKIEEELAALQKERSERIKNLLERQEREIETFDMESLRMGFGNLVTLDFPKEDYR
# [8] = target: DAPK3 (human) (UniProt O43293); assay: KINOMEscan competition binding; details: compound 10.0 µM
# [9] = target: DYRK1B (human) (UniProt Q9Y463); assay: KINOMEscan competition binding; details: compound 10.0 µM
# [10] = target: CHUK (human) (UniProt O15111); assay: KINOMEscan competition binding; details: compound 10.0 µM
# [11] = target: STK17B (human) (UniProt O94768); assay: KINOMEscan competition binding; details: compound 10.0 µM
# [12] = target: IKBKB (human) (UniProt O14920); assay: KINOMEscan competition binding; details: compound 10.0 µM
# [13] = target: PIM2 (human) (UniProt Q9P1W9); assay: KINOMEscan competition binding; details: compound 10.0 µM
# [14] = target: PLK4 (human) (UniProt O00444); assay: KINOMEscan competition binding; details: compound 10.0 µM
# PLK4 (human), sequence (O00444 whole entry, looked up): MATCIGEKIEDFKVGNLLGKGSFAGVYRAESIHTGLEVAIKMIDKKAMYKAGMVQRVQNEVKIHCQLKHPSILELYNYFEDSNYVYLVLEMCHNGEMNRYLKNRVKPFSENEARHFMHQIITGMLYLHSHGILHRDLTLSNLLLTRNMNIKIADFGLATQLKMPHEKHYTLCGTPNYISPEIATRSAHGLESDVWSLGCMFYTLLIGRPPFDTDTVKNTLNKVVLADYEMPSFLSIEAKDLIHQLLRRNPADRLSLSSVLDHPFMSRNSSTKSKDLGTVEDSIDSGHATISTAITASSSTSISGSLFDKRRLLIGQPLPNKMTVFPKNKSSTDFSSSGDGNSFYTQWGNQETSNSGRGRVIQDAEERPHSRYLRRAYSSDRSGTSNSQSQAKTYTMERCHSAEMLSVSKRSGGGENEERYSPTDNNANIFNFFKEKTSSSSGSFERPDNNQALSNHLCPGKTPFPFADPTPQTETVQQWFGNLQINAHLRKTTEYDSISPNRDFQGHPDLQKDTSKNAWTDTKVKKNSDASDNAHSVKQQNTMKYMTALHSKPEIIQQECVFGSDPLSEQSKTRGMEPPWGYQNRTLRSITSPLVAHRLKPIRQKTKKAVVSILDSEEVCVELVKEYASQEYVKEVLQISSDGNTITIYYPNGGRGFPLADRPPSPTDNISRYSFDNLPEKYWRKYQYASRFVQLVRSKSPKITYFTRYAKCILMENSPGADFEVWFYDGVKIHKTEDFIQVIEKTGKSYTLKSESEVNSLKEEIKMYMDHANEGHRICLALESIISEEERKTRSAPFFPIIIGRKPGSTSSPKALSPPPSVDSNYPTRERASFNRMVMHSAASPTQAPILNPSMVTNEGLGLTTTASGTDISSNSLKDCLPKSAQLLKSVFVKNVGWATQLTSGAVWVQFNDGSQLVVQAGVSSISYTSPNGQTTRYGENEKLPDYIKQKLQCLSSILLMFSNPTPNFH
# [15] = target: TYK2 JH2 pseudokinase (human) (UniProt P29597); assay: KINOMEscan competition binding; details: compound 10.0 µM
# [16] = target: GSK3B (human) (UniProt P49841); assay: KINOMEscan competition binding; details: compound 10.0 µM
# [17] = target: STK17A (human) (UniProt Q9UEE5); assay: KINOMEscan competition binding; details: compound 10.0 µM
# [18] = target: TAOK1 (human) (UniProt Q7L7X3); assay: KINOMEscan competition binding; details: compound 10.0 µM
# TAOK1 (human), sequence (Q7L7X3 whole entry, looked up): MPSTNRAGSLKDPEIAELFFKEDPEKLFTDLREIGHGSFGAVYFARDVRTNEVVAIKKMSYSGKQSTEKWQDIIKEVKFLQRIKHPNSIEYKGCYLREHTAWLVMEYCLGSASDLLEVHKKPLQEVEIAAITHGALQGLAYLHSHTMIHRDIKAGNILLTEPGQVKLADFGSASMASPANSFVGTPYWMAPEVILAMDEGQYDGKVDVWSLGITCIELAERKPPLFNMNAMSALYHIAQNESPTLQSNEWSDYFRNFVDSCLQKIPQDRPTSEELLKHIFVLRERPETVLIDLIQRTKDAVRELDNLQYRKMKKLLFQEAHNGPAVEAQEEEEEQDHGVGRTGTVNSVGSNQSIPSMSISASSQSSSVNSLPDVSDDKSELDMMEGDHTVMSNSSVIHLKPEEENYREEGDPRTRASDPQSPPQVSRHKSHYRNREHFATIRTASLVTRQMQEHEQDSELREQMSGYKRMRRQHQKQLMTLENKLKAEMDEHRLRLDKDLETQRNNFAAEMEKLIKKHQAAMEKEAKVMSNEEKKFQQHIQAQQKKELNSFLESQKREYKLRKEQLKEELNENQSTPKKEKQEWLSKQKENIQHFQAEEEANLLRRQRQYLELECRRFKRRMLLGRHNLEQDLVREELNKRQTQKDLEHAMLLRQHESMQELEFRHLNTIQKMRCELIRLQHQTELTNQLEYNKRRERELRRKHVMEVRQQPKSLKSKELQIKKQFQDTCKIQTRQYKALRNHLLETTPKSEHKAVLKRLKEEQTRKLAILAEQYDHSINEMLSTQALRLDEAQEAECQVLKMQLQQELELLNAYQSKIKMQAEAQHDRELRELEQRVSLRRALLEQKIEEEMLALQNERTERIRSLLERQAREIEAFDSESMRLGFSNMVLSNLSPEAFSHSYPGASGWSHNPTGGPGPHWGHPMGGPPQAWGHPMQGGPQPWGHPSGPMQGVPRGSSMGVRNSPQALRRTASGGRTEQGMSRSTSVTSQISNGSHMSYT
# [19] = target: GSK3A (human) (UniProt P49840); assay: KINOMEscan competition binding; details: compound 10.0 µM
# [20] = target: DAPK1 (human) (UniProt P53355); assay: KINOMEscan competition binding; details: compound 10.0 µM
# [21] = target: PIM1 (human) (UniProt P11309); assay: KINOMEscan competition binding; details: compound 10.0 µM
# [22] = target: MAP2K3 (human) (UniProt P46734); assay: KINOMEscan competition binding; details: compound 10.0 µM
# [23] = target: CDK7 (human) (UniProt P50613); assay: KINOMEscan competition binding; details: compound 10.0 µM
# [24] = target: TGFBR2 (human) (UniProt P37173); assay: KINOMEscan competition binding; details: compound 10.0 µM
# [25] = target: CDK16 (human) (UniProt Q00536); assay: KINOMEscan competition binding; details: compound 10.0 µM
# [26] = target: DAPK2 (human) (UniProt Q9UIK4); assay: KINOMEscan competition binding; details: compound 10.0 µM
# [27] = target: CLK4 (human) (UniProt Q9HAZ1); assay: KINOMEscan competition binding; details: compound 10.0 µM
# [28] = target: CLK2 (human) (UniProt P49760); assay: KINOMEscan competition binding; details: compound 10.0 µM
# [29] = target: FGFR4 (human) (UniProt P22455); assay: KINOMEscan competition binding; details: compound 10.0 µM
# [30] = target: NUAK2 (human) (UniProt Q9H093); assay: KINOMEscan competition binding; details: compound 10.0 µM
# [31] = target: NUAK1 (human) (UniProt O60285); assay: KINOMEscan competition binding; details: compound 10.0 µM
# [32] = target: SGK110 (human) (UniProt P0C264); assay: KINOMEscan competition binding; details: compound 10.0 µM
# [33] = target: FER (human) (UniProt P16591); assay: KINOMEscan competition binding; details: compound 10.0 µM
# [34] = target: MAPK7 (human) (UniProt Q13164); assay: KINOMEscan competition binding; details: compound 10.0 µM
# [35] = target: PIK3CG (human) (UniProt P48736); assay: KINOMEscan competition binding; details: compound 10.0 µM
# [36] = target: RPS6KA6 KD2 (human) (UniProt Q9UK32); assay: KINOMEscan competition binding; details: compound 10.0 µM
# [37] = target: PRKD1 (human) (UniProt Q15139); assay: KINOMEscan competition binding; details: compound 10.0 µM
# [38] = target: FRK (human) (UniProt P42685); assay: KINOMEscan competition binding; details: compound 10.0 µM
# [39] = target: PRKD2 (human) (UniProt Q9BZL6); assay: KINOMEscan competition binding; details: compound 10.0 µM
# [40] = target: ULK1 (human) (UniProt O75385); assay: KINOMEscan competition binding; details: compound 10.0 µM
# [41] = target: CAMK2A (human) (UniProt Q9UQM7); assay: KINOMEscan competition binding; details: compound 10.0 µM
# CAMK2A (human), sequence (Q9UQM7 whole entry, looked up): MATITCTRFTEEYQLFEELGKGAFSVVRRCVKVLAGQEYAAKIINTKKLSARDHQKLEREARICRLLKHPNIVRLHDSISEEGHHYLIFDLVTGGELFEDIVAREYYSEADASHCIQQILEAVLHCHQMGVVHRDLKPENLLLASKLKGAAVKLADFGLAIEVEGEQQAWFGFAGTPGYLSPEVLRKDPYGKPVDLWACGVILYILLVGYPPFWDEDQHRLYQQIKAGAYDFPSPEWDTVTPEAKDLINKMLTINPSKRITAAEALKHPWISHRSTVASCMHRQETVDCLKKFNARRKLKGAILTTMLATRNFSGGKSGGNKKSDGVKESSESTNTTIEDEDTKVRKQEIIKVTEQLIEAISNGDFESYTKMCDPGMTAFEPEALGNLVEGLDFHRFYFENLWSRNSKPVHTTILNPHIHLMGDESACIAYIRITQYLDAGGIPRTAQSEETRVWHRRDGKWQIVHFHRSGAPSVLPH
# [42] = target: CAMK2G (human) (UniProt Q13555); assay: KINOMEscan competition binding; details: compound 10.0 µM
# [43] = target: ULK2 (human) (UniProt Q8IYT8); assay: KINOMEscan competition binding; details: compound 10.0 µM
# [44] = target: CHEK2 (human) (UniProt O96017); assay: KINOMEscan competition binding; details: compound 10.0 µM
# [45] = target: RPS6KA2 KD2 (human) (UniProt Q15349); assay: KINOMEscan competition binding; details: compound 10.0 µM
# [46] = target: TTK (human) (UniProt P33981); assay: KINOMEscan competition binding; details: compound 10.0 µM
# [47] = target: ALK (human) (UniProt Q9UM73); assay: KINOMEscan competition binding; details: compound 10.0 µM
# [48] = target: DCLK1 (human) (UniProt O15075); assay: KINOMEscan competition binding; details: compound 10.0 µM
# [49] = target: TNK2 (human) (UniProt Q07912); assay: KINOMEscan competition binding; details: compound 10.0 µM
# TNK2 (human), sequence (Q07912 whole entry, looked up): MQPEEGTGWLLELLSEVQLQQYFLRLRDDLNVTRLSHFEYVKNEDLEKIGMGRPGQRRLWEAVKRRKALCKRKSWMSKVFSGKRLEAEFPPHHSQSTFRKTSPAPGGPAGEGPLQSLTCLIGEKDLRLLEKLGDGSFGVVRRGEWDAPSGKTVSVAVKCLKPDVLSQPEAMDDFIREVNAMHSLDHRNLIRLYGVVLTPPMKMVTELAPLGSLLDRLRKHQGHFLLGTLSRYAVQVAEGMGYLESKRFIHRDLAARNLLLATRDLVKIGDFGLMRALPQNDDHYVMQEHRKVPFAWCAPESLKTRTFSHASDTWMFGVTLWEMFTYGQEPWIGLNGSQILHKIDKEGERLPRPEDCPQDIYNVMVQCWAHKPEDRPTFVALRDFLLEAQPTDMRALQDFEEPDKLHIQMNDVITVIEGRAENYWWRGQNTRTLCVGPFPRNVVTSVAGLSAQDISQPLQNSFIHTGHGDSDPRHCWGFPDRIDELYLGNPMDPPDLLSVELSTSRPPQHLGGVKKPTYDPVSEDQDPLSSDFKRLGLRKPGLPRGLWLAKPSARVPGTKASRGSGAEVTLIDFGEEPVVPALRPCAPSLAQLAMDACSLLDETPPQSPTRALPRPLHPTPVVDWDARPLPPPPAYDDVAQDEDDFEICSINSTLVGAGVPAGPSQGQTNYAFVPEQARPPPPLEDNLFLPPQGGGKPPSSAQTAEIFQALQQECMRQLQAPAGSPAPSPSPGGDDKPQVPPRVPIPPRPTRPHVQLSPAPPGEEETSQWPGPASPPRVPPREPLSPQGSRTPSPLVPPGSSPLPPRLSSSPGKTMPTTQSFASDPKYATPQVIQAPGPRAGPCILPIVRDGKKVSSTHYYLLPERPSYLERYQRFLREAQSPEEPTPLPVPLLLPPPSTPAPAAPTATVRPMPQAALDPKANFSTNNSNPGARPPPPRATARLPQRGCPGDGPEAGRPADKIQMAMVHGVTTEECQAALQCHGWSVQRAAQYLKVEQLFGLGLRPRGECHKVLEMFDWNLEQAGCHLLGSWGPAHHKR
# [50] = target: PLK1 (human) (UniProt P53350); assay: KINOMEscan competition binding; details: compound 10.0 µM
# [51] = tested on: ABL1 (human), P00519 [F317I]; assay: KINOMEscan competition binding; details: compound 10.0 µM
# [52] = target: CSF1R (human) (UniProt P07333); assay: KINOMEscan competition binding; details: compound 10.0 µM
# [53] = target: PTK2 (human) (UniProt Q05397); assay: KINOMEscan competition binding; details: compound 10.0 µM
# [54] = target: DCLK3 (human) (UniProt Q9C098); assay: KINOMEscan competition binding; details: compound 10.0 µM
# [55] = target: MYLK (human) (UniProt Q15746); assay: KINOMEscan competition binding; details: compound 10.0 µM
# [56] = target: PHKG2 (human) (UniProt P15735); assay: KINOMEscan competition binding; details: compound 10.0 µM
# [57] = target: DCLK2 (human) (UniProt Q8N568); assay: KINOMEscan competition binding; details: compound 10.0 µM
# [58] = target: TNK1 (human) (UniProt Q13470); assay: KINOMEscan competition binding; details: compound 10.0 µM
# [59] = target: CAMKK2 (human) (UniProt Q96RR4); assay: KINOMEscan competition binding; details: compound 10.0 µM
# [60] = target: PTK6 (human) (UniProt Q13882); assay: KINOMEscan competition binding; details: compound 10.0 µM
# [61] = tested on: ABL1 (human), P00519 [F317L]; assay: KINOMEscan competition binding; details: compound 10.0 µM
# [62] = target: PIK3CD (human) (UniProt O00329); assay: KINOMEscan competition binding; details: compound 10.0 µM
# [63] = target: RPS6KA1 KD2 (human) (UniProt Q15418); assay: KINOMEscan competition binding; details: compound 10.0 µM
# [64] = target: CAMK2D (human) (UniProt Q13557); assay: KINOMEscan competition binding; details: compound 10.0 µM
# [65] = target: GAK (human) (UniProt O14976); assay: KINOMEscan competition binding; details: compound 10.0 µM
# [66] = target: PRKD3 (human) (UniProt O94806); assay: KINOMEscan competition binding; details: compound 10.0 µM
# [67] = target: STK33 (human) (UniProt Q9BYT3); assay: KINOMEscan competition binding; details: compound 10.0 µM
# [68] = target: ROS1 (human) (UniProt P08922); assay: KINOMEscan competition binding; details: compound 10.0 µM
# [69] = target: MKNK2 (human) (UniProt Q9HBH9); assay: KINOMEscan competition binding; details: compound 10.0 µM
# PIM2 (human), sequence (Q9P1W9 whole entry, looked up): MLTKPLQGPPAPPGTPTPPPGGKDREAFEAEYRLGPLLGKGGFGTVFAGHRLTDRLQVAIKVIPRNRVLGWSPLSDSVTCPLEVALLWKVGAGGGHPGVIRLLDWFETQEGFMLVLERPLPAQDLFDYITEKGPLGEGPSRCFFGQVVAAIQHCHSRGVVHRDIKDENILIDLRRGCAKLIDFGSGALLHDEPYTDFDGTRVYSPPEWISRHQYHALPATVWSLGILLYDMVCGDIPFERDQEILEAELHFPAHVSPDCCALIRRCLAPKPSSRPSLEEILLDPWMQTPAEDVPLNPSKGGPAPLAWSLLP
# PIM1 (human), sequence (P11309 whole entry, looked up): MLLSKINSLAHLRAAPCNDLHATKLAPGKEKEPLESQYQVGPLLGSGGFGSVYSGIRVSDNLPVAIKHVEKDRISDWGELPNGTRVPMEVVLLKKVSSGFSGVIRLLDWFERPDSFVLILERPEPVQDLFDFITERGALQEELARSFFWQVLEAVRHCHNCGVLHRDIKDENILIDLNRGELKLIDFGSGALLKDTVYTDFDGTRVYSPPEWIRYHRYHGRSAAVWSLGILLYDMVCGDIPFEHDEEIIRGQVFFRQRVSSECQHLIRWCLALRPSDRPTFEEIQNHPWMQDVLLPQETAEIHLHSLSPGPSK
structure (smiles),measurement,setting,value
N=C1NC(=O)/C(=C/c2ccc(-c3ccc(F)cc3)o2)S1,IC50,[1],590 nM
same,IC50,[2],1750 nM
same,"kinase still bound, per cent of control",[3],0.95%
same,"kinase still bound, per cent of control",[4],26%
same,"kinase still bound, per cent of control",[5],3.7%
same,"kinase still bound, per cent of control",[6],0.2%
same,"kinase still bound, per cent of control",[7],6.6%
same,"kinase still bound, per cent of control",[8],14%
same,"kinase still bound, per cent of control",[9],33%
same,"kinase still bound, per cent of control",[10],27%
same,"kinase still bound, per cent of control",[11],2.2%
same,"kinase still bound, per cent of control",[12],29%
same,"kinase still bound, per cent of control",[13],1.2%
same,"kinase still bound, per cent of control",[14],21%
same,"kinase still bound, per cent of control",[15],34%
same,"kinase still bound, per cent of control",[16],30%
same,"kinase still bound, per cent of control",[17],0.45%
same,"kinase still bound, per cent of control",[18],0.3%
same,"kinase still bound, per cent of control",[19],4.3%
same,"kinase still bound, per cent of control",[20],15%
same,"kinase still bound, per cent of control",[21],3.4%
same,"kinase still bound, per cent of control",[22],5.8%
same,"kinase still bound, per cent of control",[23],15%
same,"kinase still bound, per cent of control",[24],7.8%
same,"kinase still bound, per cent of control",[25],9.4%
same,"kinase still bound, per cent of control",[26],5.1%
same,"kinase still bound, per cent of control",[27],28%
same,"kinase still bound, per cent of control",[28],16%
COc1cc(N2CCN(C)CC2)ccc1Nc1ncc2c(n1)N(C)c1ccccc1C(=O)N2C,"kinase still bound, per cent of control",[29],5.6%
same,"kinase still bound, per cent of control",[30],14%
same,"kinase still bound, per cent of control",[31],7.6%
same,"kinase still bound, per cent of control",[32],30%
same,"kinase still bound, per cent of control",[33],32%
same,"kinase still bound, per cent of control",[34],0%
same,"kinase still bound, per cent of control",[35],31%
same,"kinase still bound, per cent of control",[36],4.9%
same,"kinase still bound, per cent of control",[7],2%
same,"kinase still bound, per cent of control",[37],3.8%
same,"kinase still bound, per cent of control",[38],2.6%
same,"kinase still bound, per cent of control",[39],0.55%
same,"kinase still bound, per cent of control",[40],2.9%
same,"kinase still bound, per cent of control",[41],32%
same,"kinase still bound, per cent of control",[42],31%
same,"kinase still bound, per cent of control",[43],0.5%
same,"kinase still bound, per cent of control",[44],30%
same,"kinase still bound, per cent of control",[14],6.8%
same,"kinase still bound, per cent of control",[45],15%
same,"kinase still bound, per cent of control",[46],26%
same,"kinase still bound, per cent of control",[47],16%
same,"kinase still bound, per cent of control",[48],0.65%
same,"kinase still bound, per cent of control",[49],3.2%
same,"kinase still bound, per cent of control",[50],9.8%
same,"kinase still bound, per cent of control",[51],5%
same,"kinase still bound, per cent of control",[52],16%
same,"kinase still bound, per cent of control",[18],4.8%
same,"kinase still bound, per cent of control",[53],16%
same,"kinase still bound, per cent of control",[54],16%
same,"kinase still bound, per cent of control",[55],13%
same,"kinase still bound, per cent of control",[56],29%
same,"kinase still bound, per cent of control",[57],0.45%
same,"kinase still bound, per cent of control",[58],0.4%
same,"kinase still bound, per cent of control",[59],15%
same,"kinase still bound, per cent of control",[60],7.6%
same,"kinase still bound, per cent of control",[61],17%
same,"kinase still bound, per cent of control",[62],33%
same,"kinase still bound, per cent of control",[63],18%
same,"kinase still bound, per cent of control",[64],23%
same,"kinase still bound, per cent of control",[65],9.8%
same,"kinase still bound, per cent of control",[66],5.4%
same,"kinase still bound, per cent of control",[67],8.8%
same,"kinase still bound, per cent of control",[68],7.6%
same,"kinase still bound, per cent of control",[69],0%
